In patent US6603046B1, “Bis-aromatic a,β-unsaturated ketones” (Lica Pharmaceuticals A/S, priority 1992, dated 2003):
Marks after values point to notes of the source that are not given here.

Legend:
[1] = tested on: L. major in human PBM-derived macrophages; assay: L. major in human PBM-derived macrophages, microscopic counting (Example 7); assay type: cell-based, Leishmania major
Eimeria tenella = assay: Anticoccidial activity in chickens infected with Eimeria tenella (Example 28); assay type: in vivo
[2] = Toxicity study in rats, peroral (Example 21); assay type: in vivo
Experimental: Study in rats. To 4 rats was administered one dose of 1000 mg per kg body weight perorally.

human PMN = assay: Zymosan-enhanced chemiluminescence, PMN; assay type: cell-based; settings: read-out: percentage inhibition of chemiluminescence response to opsonized zymosan (mean ± SEM)
Experimental: Chemiluminescence. Monocytes were prepared from heparinized blood by metrizoate sodium-Ficoll (the same as lymphocyte proliferation). Polymorphonuclear leucocytes (PMN) were prepared from heparinized blood by dextran sedimentation and metrizoate sodium-Ficoll separation. Remaining erythrocytes were removed by hypotonic lysis. A zymosan-enhanced chemiluminescence assay was used. The assay was performed in a total volume of 5.5 ml at ambient temperature in glass scintillation vials. A Beckman L 8000 scintillation counter (placed under air-conditioned, thermostat controlled, 21±1° C. conditions) was used in the out-of-coincidence mode A 1.1 ml portion of PMN or monocyte suspension (1×10^6 cells per ml) was pre-incubated with 1.1 ml of various concentrations of licochalcone A for 30 min at 37° C. in a rotor at 20 rpm Luminol (5-amino-2,3-dihydro-1,4-phatalazinedione) obtained from Sigma Chemical Co., St Louis, Mo., U.S.A., was maintained as a stock solution of 10 mg/ml in NaOH (0.1 N) and diluted in Krebs-Ringer solution immediately before use. Each vial contained 5×10^5 pre-incubated PMN or monocyte, 4 mg of opsonized zymosan (Sigma), 50 μl of luminol solution, and 4.45 ml of Krebs-Ringer solution containing 5 mM glucose. The final concentration of luminol in the assay mixture was 5×10^−8m.

L. major amastigotes = L. major amastigotes in human macrophages, Giemsa counting (Example 6); assay type: cell-based, Leishmania major
Experimental: Macrophage culture. The method used in this study was a modification of the one described by Berman et al. (1979). Human peripheral blood monocytes were obtained by Ficoll-Hypaque fractionation of blood from the Blood Bank, Rigshospitalet, Copenhagen, Denmark. Washed cells were suspended in medium RPMI-199 containing penicillin (50 U/ml), and streptomycin (50 μg/ml), 25 mM Hepes, 4 mM L-glutamine, and 10% heat inactivated fetal calf serum (56° C., 30 min). One milliliter of suspension containing 1×10^6 mononuclear cells was added to each well (16 mm in diameter, with one piece of cover glass in 12 mm diameter) of 24 wells of plastic culture trays (Nunc, Denmark). After 4 h and again after 3 days of incubation at 37° C. in 5% CO2-95% air, old medium was removed and washed with warm fresh medium three times, and then replaced with warm fresh medium.
Infection of macrophages with L. major promastigotes. After 6 days incubation the old medium was removed, and one milliliter of 1×10^7 4 days culture of L. major promastigotes (same promastigotes culture as in Example 4) was added to each well. After 24 h infection, macrophage cultures were washed three times with warm fresh medium and replenished with warm fresh medium with different concentrations of licochalcone A or medium alone. The medium was changed every 3 days. After infection, day 3 and day 6 a certain number of macrophage cultures were fixed with absolute methanol, stained with 5% Giemsa stain for 10 min, and examined by light microscopy (×1,000). The percentage of macrophages that contained amastigotes and the number of amastigotes present per infected macrophage were determined in replicate cultures by counting 200 cells per well.

M. avium = assay: Radiometric MIC (Example 19); assay type: cell-based
[3] = Serum concentration in rabbits after intravenous administration (Example 20); assay type: in vivo; settings: rabbit
Experimental: Number of rabbits: 1 rabbit for each group
Dose: 20 mg per kg body weight
Route: Intravenously, administered once
Samples: Samples were drawn from each rabbit twice.
Serum or plasma was diluted with one part of acetonitrile, left for 15 min at 4° C., and centrifugated for 3 min at 10,000 g. An aliquot of the supernatant was chromatographed at 37° C. by HPLC over Spherisorb ODS-2 (5 μm, 120×4.5 mm, Phase Separation LTD, UK) using acetonitrile aqueous acetic acid, 2%, (1:1) as an eluent, flow rate 1.5 ml/min, and UV detection (370 nm and 254 nm).

[4] = 3 days after infection, 0.5 μg/ml
[5] = 3 days after infection, 1 μg/ml
[6] = 6 days after infection, 0.5 μg/ml
[7] = 6 days after infection, 1 μg/ml
[8] = amount of feed consumed per kg chicken weight gain, doses as Table 28.1
[9] = in feed: salinomycin 70 ppm, 2,5 m4′ac and 2,4 mc 30 mg/kg/day, licochalcone A 10 mg/kg/day

C=CC(C)(C)c1cc(/C=C/C(=O)c2ccc(O)cc2)c(OC)cc1O [Licochalcone A, licochalcone A]
% of amast. [1, 4]: 91.6%
% of infec. cells [1, 4]: 14.0%
amast. per cell [1, 4]: 1.7
proma. per cell [1, 4]: 0.1
total amast. [1, 4]: 23.3 ×10^6
total proma. [1, 4]: 2.0 ×10^6
% of amast. [1, 5]: 88.2%
% of infec. cells [1, 5]: 10.7%
amast. per cell [1, 5]: 1.7
proma. per cell [1, 5]: 0.2
total amast. [1, 5]: 17.7 ×10^6
total proma. [1, 5]: 2.0 ×10^6
% of infec. cells ([1]; 3 days after infection, 5 μg/ml): 0%
% of infec. cells ([1]; 3 days after infection, 10 μg/ml): 0%
% of amast. [1, 6]: 100%
% of infec. cells [1, 6]: 8.0%
amast. per cell [1, 6]: 1.7
proma. per cell [1, 6]: 0
total amast. [1, 6]: 14 ×10^6
total proma. [1, 6]: 0 ×10^6
% of amast. [1, 7]: 100%
% of infec. cells [1, 7]: 7.3%
amast. per cell [1, 7]: 2.2
proma. per cell [1, 7]: 0
total amast. [1, 7]: 16 ×10^6
total proma. [1, 7]: 0 ×10^6
% of infec. cells ([1]; 6 days after infection, 5 μg/ml): 0%
% of infec. cells ([1]; 6 days after infection, 10 μg/ml): 0%
percentages of chickens showing pathological signs versus infected control group (Eimeria tenella; 10 mg/kg/day in feed): much lower
feed consumption after 7 days of treatment (Eimeria tenella; [8]): 1.26
feed consumption after 14 days of treatment (Eimeria tenella; [8]): 1.31
Weight gain in 7 days after initiation of treatment (Eimeria tenella; [9]): 414 grams per chicken
Weight gain in 14 days after initiation of treatment (Eimeria tenella; [9]): 864^b grams per chicken
Difference in weight gain to group 5 (control infected) after treatment for 14 days (Eimeria tenella; normal variation ±2%): ^bDifference between groups 4 (licochalcone A) and 5 (control infected) after treatment for 14 days is 7.6%.
Mortality (Eimeria tenella; number of chickens, groups of 35, licochalcone A 20): 0
deaths within one week ([2]; 4 rats, one dose of 1000 mg per kg perorally): None of the animals died
LD50 peroral ([2]; rats): > 1000 mg per kg
inhibition at 1 µg/mL (human PMN; 1 μg/ml): 2.1 ± 3.3%
inhibition at 2 µg/mL (human PMN; 2 μg/ml): 10.3 ± 3.3%
inhibition at 5 µg/mL (human PMN; 5 μg/ml): 18.9 ± 3.7%
inhibition at 10 µg/mL (human PMN; 10 μg/ml): 29.7 ± 4.8%
inhibition at 20 µg/mL (human PMN; 20 μg/ml): 47 ± 4.3%
number of amastigotes/100 macrophages (L. major amastigotes; 1 μg/ml, 3-day): 54
number of infected macrophages/100 macrophages (L. major amastigotes; 1 μg/ml, 3-day): 43
number of amastigotes/100 macrophages (L. major amastigotes; 1 μg/ml, 6-day): 45/45/100
number of infected macrophages/100 macrophages (L. major amastigotes; 1 μg/ml, 6-day): 45/45/100
number of amastigotes/100 macrophages (L. major amastigotes; 5 μg/ml, 3-day): 18
number of infected macrophages/100 macrophages (L. major amastigotes; 5 μg/ml, 3-day): 7
number of amastigotes/100 macrophages (L. major amastigotes; 5 μg/ml, 6-day): 11
number of infected macrophages/100 macrophages (L. major amastigotes; 5 μg/ml, 6-day): 5
number of amastigotes/100 macrophages (L. major amastigotes; 10 μg/ml, 3-day): 10
number of infected macrophages/100 macrophages (L. major amastigotes; 10 μg/ml, 3-day): 5
number of amastigotes/100 macrophages (L. major amastigotes; 10 μg/ml, 6-day): 6
number of infected macrophages/100 macrophages (L. major amastigotes; 10 μg/ml, 6-day): 4
meanMIC (M. avium; AIDS patients, n=4): > 80 µg/mL
MIC (M. avium; Mycobacterium avium, read-out: MIC, all M. avium/intracellular strains): ≥ 20 µg/mL
meanMIC (M. avium; non AIDS patients, n=7): > 80 µg/mL
concentration at 24 h ([3]; 24 hours after intravenous 20 mg per kg, detection limit): < 50 ng/mL
concentration at 1 h ([3]; one hour following intravenous 20 mg per kg): 350 ng/mL
